Converted amounts (≈) assume the structure as drawn.
Key:
Format in all cases: cell-based
HI 30063 = assay: MIC for a gram negative bacterial strain (Table 2); conditions: gram negative bacterial strain HI 30063
S. Aureus UC ® 9213 = assay: In vitro minimum inhibitory concentration (MIC) by agar dilution, gram-positive bacteria (Table 1); conditions: Staphylococcus aureus, UC9213
Text: (§1) The oxazolidinone antibacterial agents of this invention have useful activity against a variety of microorganisms. The in vitro activity of compounds of this invention can be assessed by standard testing procedures such as the determination of minimum inhibitory concentration (MIC) by agar dilution as described in "Methods for Dilution Antimicrobial Susceptibility Tests for Bacteria That Grow Aerobically" (MFT) published January 1983 by the National Committee for Clinical Laboratory Standards, 771 East Lancaster Avenue, Villanova, Pa. 19084, USA. The activity of selected compounds of this invention against Staphylococcus aureus and Streptococcus pneumoniae are shown in Table 1.

S. pneumoniae UC ® 9912 = assay: as above; conditions: Streptococcus pneumoniae, UC9912
Text: as §1

Row | MIC (HI 30063) [µg/mL] | MIC (S. Aureus UC ® 9213) [µg/mL] | MIC (S. pneumoniae UC ® 9912) [µg/mL] | Compound
1 | 4 (≈ 9.91 µM) | 1 (≈ 2.48 µM) | < 0.125 | CC(=O)NC[C@H]1CN(c2ccc(-c3nnc(CCCC#N)s3)c(F)c2)C(=O)O1 [Example 61, (S)-N-[[3-[4-[5-(3-Cyanopropyl)-1,3,4-thiadiazol-2-yl]-3-fluorophenyl]-2-oxo-5-oxazolidinyl]methyl]acetamide]
2 | 4 (≈ 10.5 µM) | 8 (≈ 21.1 µM) | < 0.125 | CC(=O)NC[C@H]1CN(c2ccc(-c3nnc([C@H](C)N)s3)c(F)c2)C(=O)O1 [Example 55, [S-(R*,R*)]-N-[[3-[4-[5-(1-Aminoethyl)-1,3,4-thiadiazol-2-yl]-3-fluorophenyl]-2-oxo-5-oxazolidinyl]methyl]acetamide]
3 | 4 | 2 | < 0.5 | CC(=O)OCC(=O)NCc1nnc(-c2ccc(N3C[C@H](CNC(C)=S)OC3=O)cc2F)s1 [Example 78, 2-({[5-(4-{(5S)-5-[(ethanethioylamino)methyl]-2-oxo-1,3-oxazolidin-3-yl}-2-fluorophenyl)-1,3,4-thiadiazol-2-yl]methyl}amino)-2-oxoethyl acetate]
4 | 1 (≈ 2.83 µM) | 0.25 (≈ 0.707 µM) | < 0.125 | NC(=S)NC[C@H]1CN(c2ccc(-c3nncs3)c(F)c2)C(=O)O1 [Example 75, (S)-[[3-[3-Fluoro-4-(1,3,4-thiadiazol-2-yl)phenyl]-2-oxo-5-oxazolidinyl]methyl]thiourea]

The next lines start with the compound.

Row | Compound | MIC (HI 30063) [µg/mL] | MIC (S. Aureus UC ® 9213) [µg/mL] | MIC (S. pneumoniae UC ® 9912) [µg/mL]
5 | CC(=O)NC[C@H]1CN(c2ccc(-c3nnc(CC(N)=O)s3)c(F)c2)C(=O)O1 [Example 14, (S)-5-[4-[5-[(Acetylamino)methyl]-2-oxo-3-oxazolidinyl]-2-fluorophenyl]-1,3,4-thiadiazole-2-acetamide] | 4 (≈ 10.2 µM) | 4 (≈ 10.2 µM) | < 0.125
6 | CC(=O)NC[C@H]1CN(c2ccc(-c3nnc([C@H](C)O)s3)c(F)c2)C(=O)O1 [Example 51, [S-(R*,R*)]-N-[[3-[3-Fluoro-4-[5-(1-hydroxyethyl)-1,3,4-thiadiazol-2-yl]phenyl]-2-oxo-5-oxazolidinyl]methyl]acetamide] | 4 (≈ 10.5 µM) | 2 (≈ 5.26 µM) | 0.25 (≈ 0.657 µM)
7 | CSc1nnc(-c2ccc(N3C[C@H](CNC(C)=O)OC3=O)cc2F)s1 [Example 31, (S)-N-[[3-[3-Fluoro-4-[5-(methylthio)-1,3,4-thiadiazol-2-yl]phenyl]-2-oxo-5-oxazolidinyl]methyl]acetamide] | 4 (≈ 10.5 µM) | 0.5 (≈ 1.31 µM) | < 0.125
8 | CC(=O)CCc1nnc(-c2ccc(N3C[C@H](CNC(C)=O)OC3=O)cc2F)s1 [Example 16, (S)-N-[[3-[3-Fluoro-4-[5-(3-oxobutyl)-1,3,4-thiadiazol-2-yl]phenyl]-2-oxo-5-oxazolidinyl]methyl]acetamide] | 4 (≈ 9.84 µM) | 1 (≈ 2.46 µM) | < 0.125
9 | CC(=O)NC[C@H]1CN(c2ccc(-c3nnc(CO)s3)c(F)c2)C(=O)O1 [Example 11, (S)-N-[[3-[3-Fluoro-4-(5-hydroxymethyl-1,3,4-thiadiazol-2-yl)phenyl]-2-oxo-5-oxazolidinyl]methyl]acetamide] | 4 (≈ 10.9 µM) | 1 (≈ 2.73 µM) | < 0.125
10 | CC(=O)NC[C@H]1CN(c2ccc(-c3nnc(CCC#N)s3)c(F)c2)C(=O)O1 [Example 20, (S)-N-[[3-[4-[5-(2-Cyanoethyl)-1,3,4-thiadiazol-2-yl]-3-fluorophenyl]-2-oxo-5-oxazolidinyl]methyl]acetamide] | 2 (≈ 5.14 µM) | 0.5 (≈ 1.28 µM) | < 0.125
11 | CC(=O)NC[C@H]1CN(c2ccc(-c3n[nH]c(=O)s3)c(F)c2)C(=O)O1 [Example 29, (S)-N-[[3-[4-(4,5-Dihydro-5-oxo-1,3,4-thiadiazol-2-yl)-3-fluorophenyl]-2-oxo-5-oxazolidinyl]methyl]acetamide] | 4 (≈ 11.4 µM) | 1 (≈ 2.84 µM) | 0.25 (≈ 0.71 µM)
12 | CC(=O)NC[C@H]1CN(c2ccc(-c3nnc(CCCO)s3)c(F)c2)C(=O)O1 [Example 50, (S)-N-[[3-[3-Fluoro-4-[5-(3-hydroxypropyl)-1,3,4-thiadiazol-2-yl]phenyl]-2-oxo-5-oxazolidinyl]methyl]acetamide] | 4 (≈ 10.1 µM) | 2 (≈ 5.07 µM) | 0.25 (≈ 0.634 µM)

Reference: patent US5977373A, “Thiadiazolyl and oxadiazolyl phenyl oxazolidinone antibacterial agents” (Pharmacia & Upjohn Company, priority 1998, dated 1999)
